Assay results: patent publication US20240190880A1 (THE REGENTS OF THE UNIVERSITY OF MICHIGAN, priority 2021, published 2024)

target: T1, ER (Homo sapiens, UniProt P03372); assay: ER degradation activity, in-cell western blot analysis in T47D cells; assay type: cell-based; conditions: 16 hours, Table A does not say which cell line (T47D or MCF7), read-out: Potency (DC50)
T1 construct: host or cells: T47D and MCF7 human breast cancer cells
T1 sequence (P03372 1-595): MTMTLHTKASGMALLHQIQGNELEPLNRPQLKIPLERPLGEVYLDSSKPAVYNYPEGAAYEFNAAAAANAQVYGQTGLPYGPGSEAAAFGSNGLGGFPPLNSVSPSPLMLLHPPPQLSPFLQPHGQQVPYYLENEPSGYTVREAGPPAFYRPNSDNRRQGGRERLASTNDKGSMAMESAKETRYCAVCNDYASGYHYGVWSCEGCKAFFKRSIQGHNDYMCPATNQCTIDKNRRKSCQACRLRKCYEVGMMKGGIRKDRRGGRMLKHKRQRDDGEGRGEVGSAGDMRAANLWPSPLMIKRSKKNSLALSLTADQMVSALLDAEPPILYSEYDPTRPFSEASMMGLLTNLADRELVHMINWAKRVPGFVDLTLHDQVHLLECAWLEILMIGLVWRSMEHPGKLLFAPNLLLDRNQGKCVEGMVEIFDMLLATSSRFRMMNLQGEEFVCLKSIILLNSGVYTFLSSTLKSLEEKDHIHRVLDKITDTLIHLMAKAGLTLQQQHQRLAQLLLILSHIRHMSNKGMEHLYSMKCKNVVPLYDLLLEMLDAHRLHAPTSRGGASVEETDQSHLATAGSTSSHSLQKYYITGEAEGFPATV
In short: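 Read-out is near-infrared fluorescence from an in-cell western, expressed as ER percentage relative to untreated and DMSO controls taken as 100%. T47D breast cancer cells received compound for 16 h in 0.5% DMSO.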

| DC50 | Structure (SMILES) |
| --- | --- |
| 10 to 100 nM | C[C@@H]1Cc2c([nH]c3ccccc23)[C@@H](c2ccc(N3CCC4(CCN(C(=O)CN5Cc6cc7c(cc6C5)C(=O)N(C5CCC(=O)NC5=O)C7=O)CC4)CC3)cc2)N1CC(F)F (stereo partly drawn) [E 265, 6-(2-(9-(4-((1R,3R)-2-(2,2-difluoroethyl)-3-methyl-2,3,4,9-tetrahydro-1H-pyrido[3,4-b]indol-1-yl)phenyl)-3,9-diazaspiro[5.5]undecan-3-yl)-2-oxoethyl)-2-(2,6-dioxopiperidin-3-yl)-6,7-dihydropyrrolo[3,4-f]isoindole-1,3(2H,5H)-dione] |
| 10 to 100 nM | C[C@@H]1Cc2c([nH]c3ccccc23)[C@@H](c2c(F)cc(N3CC(C(=O)N4CC(N5Cc6cc7c(cc6C5)C(=O)N(C5CCC(=O)NC5=O)C7=O)C4)C3)cc2F)N1CC(F)F (stereo partly drawn) [E 229, 6-(1-(1-(4-((1R,3R)-2-(2,2-difluoroethyl)-3-methyl-2,3,4,9-tetrahydro-1H-pyrido[3,4-b]indol-1-yl)-3,5-difluorophenyl)azetidine-3-carbonyl)azetidin-3-yl)-2-(2,6-dioxopiperidin-3-yl)-6,7-dihydropyrrolo[3,4-f]isoindole-1,3(2H,5H)-dione] |
| 10 to 100 nM | C[C@@H]1Cc2c([nH]c3ccccc23)[C@@H](c2ccc(N3CCC4(CCN(C(=O)CN5Cc6cc7c(cc6C5)C(=O)N(C5CCC(=O)NC5=O)C7=O)CC4)CC3)cc2F)N1CC(F)F (stereo partly drawn) [E 293, 6-(2-(9-(4-((1R,3R)-2-(2,2-difluoroethyl)-3-methyl-2,3,4,9-tetrahydro-1H-pyrido[3,4-b]indol-1-yl)-3-fluorophenyl)-3,9-diazaspiro[5.5]undecan-3-yl)-2-oxoethyl)-2-(2,6-dioxopiperidin-3-yl)-6,7-dihydropyrrolo[3,4-f]isoindole-1,3(2H,5H)-dione] |

Further lines, the molecule ahead of its results:

| Structure (SMILES) | DC50 |
| --- | --- |
| O=C1CCC(N2C(=O)c3cc4c(cc3C2=O)CN(C2CCC(NC3CCN(c5ccc([C@@H]6c7ccc(O)cc7CC[C@@H]6c6ccccc6)cc5)CC3)CC2)C4)C(=O)N1 (stereo partly drawn) [E 303, 2-(2,6-dioxopiperidin-3-yl)-6-(4-((1-(4-((1R,2S)-6-hydroxy-2-phenyl-1,2,3,4-tetrahydronaphthalen-1-yl)phenyl)piperidin-4-yl)amino)cyclohexyl)-6,7-dihydropyrrolo[3,4-f]isoindole-1,3(2H,5H)-dione] | > 100 nM |
| O=C1CCC(N2C(=O)c3cc4c(cc3C2=O)CN(C2CCN(CC3CN(c5ccc([C@@H]6c7ccc(O)cc7CC[C@@H]6c6ccccc6)cc5)C3)CC2)C4)C(=O)N1 (stereo partly drawn) [E243, 2-(2,6-dioxopiperidin-3-yl)-6-(1-((1-(4-((1R,2S)-6-hydroxy-2-phenyl-1,2,3,4-tetrahydronaphthalen-1-yl)phenyl)azetidin-3-yl)methyl)piperidin-4-yl)-6,7-dihydropyrrolo[3,4-f]isoindole-1,3(2H,5H)-dione] | < 10 nM |
| CCC(=C(c1ccc(O)cc1)c1ccc(N2CCC3(CCN(CC(=O)N4Cc5cc6c(cc5C4)C(=O)N(C4CCC(=O)NC4=O)C6=O)CC3)C2)cc1)c1ccccc1 (centres unmarked) [E 192, 2-(2,6-dioxopiperidin-3-yl)-6-(2-(2-(4-(1-(4-hydroxyphenyl)-2-phenylbut-1-en-1-yl)phenyl)-2,8-diazaspiro[4.5]decan-8-yl)acetyl)-6,7-dihydropyrrolo[3,4-f]isoindole-1,3(2H,5H)-dione] | 10 to 100 nM |
| C[C@@H]1Cc2c([nH]c3ccccc23)[C@@H](c2cnc(N3CCC4(CC3)CN(C(=O)CN3Cc5cc6c(cc5C3)C(=O)N(C3CCC(=O)NC3=O)C6=O)C4)nc2)N1CC(F)F (stereo partly drawn) [E 259, 6-(2-(7-(5-((1R,3R)-2-(2,2-difluoroethyl)-3-methyl-2,3,4,9-tetrahydro-1H-pyrido[3,4-b]indol-1-yl)pyrimidin-2-yl)-2,7-diazaspiro[3.5]nonan-2-yl)-2-oxoethyl)-2-(2,6-dioxopiperidin-3-yl)-6,7-dihydropyrrolo[3,4-f]isoindole-1,3(2H,5H)-dione] | < 10 nM |
| O=C1CCC(N2C(=O)c3cc4c(cc3C2=O)CN(CC(=O)N2CCC3(CC2)CCN(c2ccc([C@@H]5c6ccc(O)cc6CC[C@@H]5c5ccccc5)cc2)C3)C4)C(=O)N1 (mixture of isomers) [E 139, Rac-2-(2,6-dioxopiperidin-3-yl)-6-(2-(2-(4-((1R,2S)-6-hydroxy-2-phenyl-1,2,3,4-tetrahydronaphthalen-1-yl)phenyl)-2,8-diazaspiro[4.5]decan-8-yl)-2-oxoethyl)-6,7-dihydropyrrolo[3,4-f]isoindole-1,3(2H,5H)-dione] | 10 to 100 nM |
| C[C@H]1Cc2c([nH]c3ccccc23)[C@H](c2c(F)cc(N3CC4(CCN(C(=O)CN5Cc6cc7c(cc6C5)C(=O)N(C5CCC(=O)NC5=O)C7=O)CC4)C3)cc2F)N1CC(F)F (stereo in doubt) [E 84, 6-(2-(2-(4-((1S,3S)-2-(2,2-difluoroethyl)-3-methyl-2,3,4,9-tetrahydro-1H-pyrido[3,4-b]indol-1-yl)-3,5-difluorophenyl)-2,7-diazaspiro[3.5]nonan-7-yl)-2-oxoethyl)-2-(2,6-dioxopiperidin-3-yl)-6,7-dihydropyrrolo[3,4-f]isoindole-1,3(2H,5H)-dione] | < 10 nM |
| C[C@@H]1Cc2cc(O)ccc2[C@@H](c2c(F)cc(N3CCC4(CN(C(=O)CN5Cc6cc7c(cc6C5)C(=O)N(C5CCC(=O)NC5=O)C7=O)C4)C3)cc2F)N1CC(F)F (stereo partly drawn) [E 44, 6-(2-(6-(4-((1S,3R)-2-(2,2-difluoroethyl)-6-hydroxy-3-methyl-1,2,3,4-tetrahydroisoquinolin-1-yl)-3,5-difluorophenyl)-2,6-diazaspiro[3.4]octan-2-yl)-2-oxoethyl)-2-(2,6-dioxopiperidin-3-yl)-6,7-dihydropyrrolo[3,4-f]isoindole-1,3(2H,5H)-dione] | 10 to 100 nM |

same assay, conditions: compounds 16 hours, Table A does not say whether T47D or MCF7, read-out: Potency (DC50)

| DC50 | Structure (SMILES) |
| --- | --- |
| > 100 nM | COc1cc([C@H]2CC[C@@H](C(=O)N3CCC(N4Cc5cc6c(cc5C4)C(=O)N(C4CCC(=O)NC4=O)C6=O)CC3)CC2)ccc1[C@@H]1c2[nH]c3ccccc3c2C[C@@H](C)N1CC(F)F (stereo partly drawn) [E 404, 6-(1-((1S,4s)-4-(4-((1R,3R)-2-(2,2-difluoroethyl)-3-methyl-2,3,4,9-tetrahydro-1H-pyrido[3,4-b]indol-1-yl)-3-methoxyphenyl)cyclohexane-1-carbonyl)piperidin-4-yl)-2-(2,6-dioxopiperidin-3-yl)-6,7-dihydropyrrolo[3,4-f]isoindole-1,3(2H,5H)-dione] |
| < 10 nM | C[C@@H]1Cc2c(ccc3[nH]ncc23)[C@@H](c2c(F)cc(NC3CN(C(=O)[C@H]4CC[C@H](N5Cc6cc7c(cc6C5)C(=O)N(C5CCC(=O)NC5=O)C7=O)CC4)C3)cc2F)N1CC(F)F (some centres unmarked) [E 425] |

Continued, molecule first:

| Structure (SMILES) | DC50 |
| --- | --- |
| C[C@@H]1Cc2cc(O)ccc2C(c2ccc(C3CCC4(CC3)CCN(C(=O)CN3Cc5cc6c(cc5C3)C(=O)N(C3CCC(=O)NC3=O)C6=O)CC4)cc2)N1CC(F)F (stereo partly drawn) [E 450, 6-(2-(9-(4-((3R)-2-(2,2-difluoroethyl)-6-hydroxy-3-methyl-1,2,3,4-tetrahydroisoquinolin-1-yl)phenyl)-3-azaspiro[5.5]undecan-3-yl)-2-oxoethyl)-2-(2,6-dioxopiperidin-3-yl)-6,7-dihydropyrrolo[3,4-f]isoindole-1,3(2H,5H)-dione] | 10 to 100 nM |
| C[C@@H]1Cc2cc(O)ccc2[C@@H](c2c(F)cc(OC3CC4(CCN(C(=O)CN5Cc6cc7c(cc6C5)C(=O)N(C5CCC(=O)NC5=O)C7=O)CC4)C3)cc2F)N1CC(F)F (stereo partly drawn) [E 455, 6-(2-(2-(4-((1S,3R)-2-(2,2-difluoroethyl)-6-hydroxy-3-methyl-1,2,3,4-tetrahydroisoquinolin-1-yl)-3,5-difluorophenoxy)-7-azaspiro[3.5]nonan-7-yl)-2-oxoethyl)-2-(2,6-dioxopiperidin-3-yl)-6,7-dihydropyrrolo[3,4-f]isoindole-1,3(2H,5H)-dione] | 10 to 100 nM |
